Assay: Heating of Lamotrigine Solvates/Hydrates (annealing; crystal form afterwards)
Assay type: physicochemical
Conditions: resulting crystal form
Protocol: All X-ray powder diffraction patterns were obtained by methods known in the art. One method employs the use of a Philips X-Ray powder diffractometer, Goniometer model 1050/70 at a scanning speed of 20 per minute. Another method employs the use of a Scintag X'TRA X-ray powder diffractometer, equipped with a solid state Si(Li) detector thermoelectrically cooled, at a scanning speed of 30 min.^−1 Scanning range […] two-theta. Copper radiation of 1.5418 Å was used. According to one embodiment, the present invention provides a process for preparing lamotrigine form A including heating lamotrigine solvates at temperatures elevated enough to remove all the solvent from the crystal, usually above 100° C. for a period of about 2 hours, preferably above 110° C. for a period of about 1 hour, more preferably at about 150° C. for a period of about ½ hour. [table]

| Compound | Crystal form after annealing at 110° C. 45 min (solid heated at 110° C. for 45 min) | Crystal form after annealing at 80° C. 60 min (solid heated at 80° C. for 60 min) |
| --- | --- | --- |
| Nc1nnc(-c2cccc(Cl)c2Cl)c(N)n1 [C DMF monosolvate, 6-(2,3-Dichlorophenyl)-1,2,4-triazine-3,5-diamine] | A + P | – |
| Nc1nnc(-c2cccc(Cl)c2Cl)c(N)n1 [J ispropanolate, 6-(2,3-Dichlorophenyl)-1,2,4-triazine-3,5-diamine] | – | Amorphous |
